Measurements as given in US20120295923A1, “Aminocyclohexanes and Aminotetrahydropyrans and Related Compounds As Gamma-Secretase Modulators” (PFIZER INC., priority 2010, published 2012).
Structures can show the parent of a compound that is named as a salt.

tested on: γ-secretase; production of amyloid beta protein Aβ(1-42); experiment: Cell-Based γ-Secretase Assay with ELISA Readout; conditions: human WT-APP overexpressing CHO cells; footnote 8: single determination; read-out: Aβ 42B IC50 (nM) (Geometric Mean of 2-8 Determinations)
Experimental: The ability of compounds to modulate production of amyloid beta protein A6(1-42) was determined using human WT-APP overexpressing CHO cells. Cells were plated at 22,000 cells/100 μL well in 96 well tissue culture treated, clear plates (Falcon) in DMEM/F12 based medium and incubated for 24 hours at 37° C. Compounds for testing were diluted in 100% DMSO to achieve an eleven points, half log, dose response for IC50 determinations. Compounds were added in fresh medium to achieve 1% final DMSO. Appropriate vehicle and inhibitor controls were added to obtain maximum and minimum inhibition values for the assay before the plates were incubated for about 24 hours at 37° C.
Coating of ELISA assay plates was initiated by addition of 50 μL/well of an in-house Aβ(1-42) specific antibody at (4 μg/mL) in 0.1 M NaHCO3 (pH 9.0) into black 384-well Maxisorp® plates (Nunc) and incubated overnight at 4° C. The capture antibody was then aspirated from the ELISA assay plates and 100 μL/well of Blocking Buffer (Dulbecco's PBS, 1.5% BSA (Sigma A7030)) added. Ambient temperature incubation was allowed to proceed for a minimum of two hours before washing 2×100 μL with Wash Buffer (Dulbecco's PBS, 0.05% Tween 20). Assay Buffer (Dulbecco's PBS, 1.0% BSA (Sigma A7030), 0.05% Tween 20) 20 μL/well was then added.
After incubation overnight at 37° C., 5% CO2, 40 μL (in duplicate) of experimental conditioned media were transferred into wells of the blocked ELISA plates containing the capture antibody, followed by overnight incubation at 4° C.
After overnight incubation of the ELISA assay plates at 4° C., unbound Aβ peptides were removed thorough (4×100 μL) washes with Wash Buffer. Europium (Eu) labeled (custom labeled, Perkin Elmer) Aβ(1-16) 6e10 Monoclonal Antibody (Covance #SIG-39320 was added, (50 μL/well Eu-6e10 @ 1:5000, 20 uM EDTA) in Assay Buffer. Incubation at ambient temperature for a minimum of 2 hours was followed by (4×100 μL) washes with Wash Buffer, before 50 μL/well of Delfia Enhancement Solution (PerkinElmer) was added. Following a one hour ambient temperature incubation, the plates were read on an EnVision plate reader (PerkinElmer) using standard DELFIA TRF settings. Data analysis including inhibitory IC50 determination was performed using nonlinear regression fit analysis (in-house software) and the appropriate plate mean values for the maximum and minimum inhibition controls.

Question: For O=C(O)C[C@@H]1CC[C@@H](N(CC2CCCC2)CC2CCCC2)[C@H](c2ccc(F)cc2)C1 [Example 18, [(1R,3S,4R)-4-[bis(cyclopentyl-methyl)amino]-3-(4-fluorophenyl)cyclohexyl]acetic acid], which IC50 is on record?
Answer: 2630 nM

Question: O=C(O)C[C@@H]1CC[C@@H](N(Cc2cccc(F)c2)CC2CCCC2)[C@H](c2ccc(C(F)(F)F)cc2)C1 [Example 28, {(1R,3S,4R)-4-[(cyclopentyl-methyl)(3-fluorobenzyl)amino]-3-[4-(trifluoromethyl)phenyl]cyclohexyl} acetic acid, hydro-chloride salt] was tested. Which IC50 did it give?
Answer: 230 nM

Question: O=C(O)C[C@@H]1CC[C@@H](N(Cc2ccc(F)cc2)CC2CCCC2)[C@H](c2ccc(C(F)(F)F)cc2)C1 [Example 26, {(1R,3S,4R)-4-[(cyclopentyl-methyl)(4-fluorobenzyl)amino]-3-[4-(trifluoromethyl)phenyl]cyclohexyl} acetic acid] was tested. Which IC50 did it give?
Answer: 190 nM

Question: Which IC50 does the source give for CC(C)CCN(CCC(F)(F)F)[C@@H]1CO[C@@H](CC(=O)O)C[C@H]1c1ccc(C(F)(F)F)cc1 [Example 10, 2-{(2R,4S,5S)-5-[(3-methylbutyl)(3,3,3-trifluoropropyl)amino]-4-[4-(trifluoromethyl)phenyl]tetrahydro-2H-pyran-2-yl} acetic acid, hydrochloride salt] here?
Answer: 4770 nM

Question: For O=C(O)C[C@@H]1CC[C@@H](N(Cc2ccccc2F)CC2CCCC2)[C@H](c2ccc(C(F)(F)F)cc2)C1 [Example 27, {(1R,3S,4R)-4-[(cyclopentyl-methyl)(2-fluorobenzyl)amino]-3-[4-(trifluoromethyl)phenyl]cyclohexyl} acetic acid], which IC50 is on record?
Answer: 155 nM

Question: CC(C)CCN(CCC(F)(F)F)[C@@H]1CC[C@@H](CC(=O)O)C[C@H]1c1ccc(C(F)(F)F)cc1 (racemic) [Example 9, {(1R,3S,4R)/ (1S,3R,4S)-4-[(3-methylbutyl) (3,3,3-trifluoropropyl)amino]-3-[4-(trifluoromethyl)phenyl]cyclohexyl} acetic acid, hydrochloride salt] was tested. Which IC50 did it give?
Answer: 618 nM

Question: For CC1CN([C@@H]2CC[C@@H](CC(=O)O)C[C@H]2c2ccc(C(F)(F)F)cc2)CC2(CCCCC2)C1 (stereo partly drawn) [Example 23, {(1R,3S,4R)-4-(4-methyl-2-azaspiro[5.5]undec-2-yl)-3-[4-(trifluoromethyl)phenyl]cyclohexyl} acetic acid], which IC50 is on record?
Answer: 868 nM

Question: With O=C(O)C[C@@H]1CC[C@@H](N(CC2CCCC2)CC2CCCC2)[C@H](c2cccc(C(F)(F)F)c2)O1 [Example 20, {(2S,5R,6S)-5-[bis(cyclopentyl-methyl)amino]-6-[3-(trifluoromethyl)phenyl]tetrahydro-2H-pyran-2-yl} acetic acid] as the molecule, how does the IC50 read?
Answer: 959 nM

Question: With CC(C)CCN(CC1CCCCO1)[C@@H]1CC[C@@H](CC(=O)O)C[C@H]1c1ccc(C(F)(F)F)cc1 (stereo partly drawn) [Example 17, {[1R,3S,4R)-4-[(3-methylbutyl) (tetrahydro-2H-pyran-2-ylmethyl)amino]-3-[4-(trifluoromethyl)phenyl]cyclohexyl} acetic acid] as the molecule, how does the IC50 read?
Answer: 1510 nM

Question: With CC(C)CCN(C1CCC(F)(F)CC1)[C@@H]1CC[C@@H](CC(=O)O)C[C@H]1c1ccc(C(F)(F)F)cc1 [Example 16, {(1R,3S,4R)-4-[(4,4-difluoro-cyclohexyl)(3-methylbutyl)amino]-3-[4-(trifluoromethyl)phenyl]cyclohexyl} acetic acid] as the molecule, how does the IC50 read?
Answer: 496 nM

same assay, conditions: human WT-APP overexpressing CHO cells; geometric mean of 2-4 determinations unless otherwise indicated (footnote 10: 6-8; footnote 14: single determination); read-out: Aβ 42B IC50

Question: CCC(C)CN(CC1CCCC1)[C@@H]1CC[C@@H](CC(=O)O)C[C@H]1c1ccc(C(F)(F)F)cc1 (stereo partly drawn) [Example 34, {(1R,3S,4R)-4-[(cyclopentylmethyl)(2-methylbutyl)amino]-3-[4-(trifluoromethyl)phenyl]cyclohexyl}acetic acid, ammonium salt] was tested. Which IC50 did it give?
Answer: 359 nM

Question: How did the IC50 turn out when O=C(O)C[C@@H]1CC[C@@H](N(CC2=Cc3ccccc3OC2)CC2(F)CCCCC2)[C@H](c2ccc(C(F)(F)F)cc2)C1 [Example 62, {(1R,3S,4R)-4-{(2H-chromen-3-ylmethyl)[(1-fluorocyclohexyl)methyl]amino}-3-[4-(trifluoromethyl)phenyl]cyclohexyl}acetic acid, trifluoroacetate salt] was run?
Answer: 223 nM

Question: For O=C(O)C[C@@H]1CC[C@@H](N(CCC(F)(F)F)CC2CCCC2)[C@H](c2ccc(C(F)(F)F)cc2)C1 [Example 45, {(1R,3S,4R)-4-[(cyclopentylmethyl)(3,3,3-trifluoropropyl)amino]-3-[4-(trifluoromethyl)phenyl]cyclohexyl}acetic acid, trifluoroacetate salt], which IC50 is on record?
Answer: 484 nM

Question: Which IC50 does the source give for O=C(O)C[C@@H]1CC[C@@H](N(Cc2cncnc2)CC2CCCC2)[C@H](c2ccc(C(F)(F)F)cc2)C1 [Example 38, {(1R,3S,4R)-4-[(cyclopentylmethyl)(pyrimidin-5-ylmethyl)amino]-3-[4-(trifluoromethyl)phenyl]cyclohexyl}acetic acid, trifluoroacetate salt] here?
Answer: 5220 nM

Question: With CC(C)(C#N)CCN(CC1CCCC1)[C@@H]1CC[C@@H](CC(=O)O)C[C@H]1c1ccc(C(F)(F)F)cc1 [Example 37, {(1R,3S,4R)-4-[(3-cyano-3-methylbutyl)(cyclopentylmethyl)amino]-3-[4-(trifluoromethyl)phenyl]cyclohexyl}acetic acid, trifluoroacetate salt] as the molecule, how does the IC50 read?
Answer: 2170 nM

Question: With CC(C)CCN(CCC1CCCCC1)[C@@H]1CC[C@@H](CC(=O)O)C[C@H]1c1ccc(C(F)(F)F)cc1 [Example 32, {(1R,3S,4R)-4-[(2-cyclohexylethyl)(3-methylbutyl)amino]-3-[4-(trifluoromethyl)phenyl]cyclohexyl}acetic acid, trifluoroacetate salt] as the molecule, how does the IC50 read?
Answer: 598 nM

Question: With COc1cccc(F)c1CN(CC1(F)CCCCC1)[C@@H]1CC[C@@H](CC(=O)O)C[C@H]1c1ccc(C(F)(F)F)cc1 [Example 58, {(1R,3S,4R)-4-{[(1-fluorocyclohexyl)methyl](2-fluoro-6-methoxybenzyl)amino}-3-[4-(trifluoromethyl)phenyl]cyclohexyl}acetic acid, trifluoroacetate salt] as the molecule, how does the IC50 read?
Answer: 309 nM

Question: For CCCc1nscc1CN(CC(C)C)[C@@H]1CC[C@@H](CC(=O)O)C[C@H]1c1ccc(C(F)(F)F)cc1 [Example 59, {(1R,3S,4R)-4-{isobutyl[(3-propylisothiazol-4-yl)methyl]amino}-3-[4-(trifluoromethyl)phenyl]cyclohexyl}acetic acid, trifluoroacetate salt], which IC50 is on record?
Answer: 349 nM

Question: With O=C(O)C[C@@H]1CC[C@@H](N(Cc2cscn2)CC2CCCC2)[C@H](c2ccc(C(F)(F)F)cc2)C1 [Example 42, {(1R,3S,4R)-4-[(cyclopentylmethyl)(1,3-thiazol-4-ylmethyl)amino]-3-[4-(trifluoromethyl)phenyl]cyclohexyl}acetic acid, trifluoroacetate salt] as the molecule, how does the IC50 read?
Answer: 1970 nM

Question: For O=C(O)C[C@@H]1CC[C@@H](N(CC2CCCC2)CC2(F)CCCCC2)[C@H](c2ccc(C(F)(F)F)cc2)C1 [Example 39, {(1R,3S,4R)-4-{(cyclopentylmethyl)[(1-fluorocyclohexyl)methyl]amino}-3-[4-(trifluoromethyl)phenyl]cyclohexyl}acetic acid, ammonium salt], which IC50 is on record?
Answer: 109 nM

Question: How did the IC50 turn out when Cc1cc(CN(CC(C)C)[C@@H]2CC[C@@H](CC(=O)O)C[C@H]2c2ccc(C(F)(F)F)cc2)oc1C [Example 67, {(1R,3S,4R)-4-{[(4,5-dimethyl-2-furyl)methyl](isobutyl)amino}-3-[4-(trifluoromethyl)phenyl]cyclohexyl}acetic acid, trifluoroacetate salt] was run?
Answer: 411 nM

same assay, conditions: human WT-APP overexpressing CHO cells; geometric mean of 2 determinations unless otherwise indicated (footnote 2: 6-14 determinations); read-out: Aβ 42B IC50

Question: O=C(O)C[C@@H]1CC[C@@H](N(CC2CCCC2)CC2CCCC2)[C@H](c2ccc(Cl)cc2)C1 [Example 6, [(1R,3S,4R)-4-[bis(cyclopentylmethyl)amino]-3-(4-chlorophenyl)cyclohexyl]acetic acid] was tested. Which IC50 did it give?
Answer: 719 nM

Question: How did the IC50 turn out when O=C(O)C[C@@H]1CC[C@@H](N(CC2CCCC2)CC2CCCC2)[C@H](c2ccc(C(F)(F)F)cc2)O1 [Example 3, {(2S,5R,6S)-5-[bis(cyclopentylmethyl)amino]-6-[4-(trifluoromethyl)phenyl]tetrahydro-2H-pyran-2-yl}acetic acid] was run?
Answer: 357 nM

Question: With CC(C)CN(CC1CCCC1)[C@@H]1CC[C@@H](CC(=O)O)O[C@H]1c1ccc(C(F)(F)F)cc1 [Example 4, {(2S,5R,6S)-5-[(cyclopentylmethyl)(isobutyl)amino]-6-[4-(trifluoromethyl)phenyl]tetrahydro-2H-pyran-2-yl}acetic acid] as the molecule, how does the IC50 read?
Answer: 608 nM
